Experimental data taken from patent publication US20190298772A1, “COMBINATION THERAPY OF A T CELL-BASED THERAPY AND A BTK INHIBITOR” (Juno Therapeutics, Inc., priority 2016, published 2019).

Assays:
[1] = test system: anti-CD19 CAR T cells; assay: Cytolytic activity of anti-CD19 CAR T cells co-cultured with K562-CD19 target cells in the presence of ibrutinib; assay type: cell-based, human
Description: (§1) To generate CAR-expressing T cells, T cells were isolated by immunoaffinity-based enrichment from three healthy human donor subjects, and cells from each donor were activated and transduced with a viral vector encoding an anti-CD19 CAR. The CAR contained an anti-CD19 scFv, an Ig-derived spacer, a human CD28-derived transmembrane domain, a human 4-1BB-derived intracellular signaling domain and a human CD3 zeta-derived signaling domain. The nucleic acid construct encoding the CAR also included a truncated EGFR (tEGFR) sequence for use as a transduction marker, separated from the CAR sequence by a self-cleaving T2A sequence.
(§2) CAR-expressing CD4+ and CD8+ cells were mixed 1:1 for each donor, individually, and the pooled cells for each donor assessed in vitro under various conditions.
CAR T cells generated as described above were plated in triplicate on Poly-D-Lysine plates and then co-cultured with ibrutinib-resistant CD19-expressing target cells (K562 cells transduced to express CD19, K562-CD19) at an effector to target (E:T) ratio of 2.5:1. The target cells were labeled with NucLight Red (NLR), to permit tracking of target cells by microscopy.

[2] = test system: anti-CD19 CAR T cells; assay: Expression of CAR-T cell surface markers by flow cytometry after stimulation with irradiated K562-CD19 cells; assay type: cell-based, human
Description: as §1, §2
CAR-T cells generated as described above were plated at 100,000 cells/well on 96 well Poly-D-Lysine coated plates. Irradiated K562-CD19 target cells were added at an effector to target ratio of 2.5:1. […] Cells were harvested at 1, 2, 3, and 4 days, and were analyzed by flow cytometry for T cell activation and differentiation surface markers CD69, CD107a, PD-1, CD25, CD38, CD39, CD95, CD62L, CCR7, CD45RO and for truncated EGFR (a surrogate marker for CAR-transduced cells).

[3] = test system: anti-CD19 CAR T cells; assay: Cytokine production in supernatants of CAR-T / K562-CD19 co-cultures (MSD); assay type: cell-based, human
Description: as §1, §2
CAR-T cells generated as described above were plated at 100,000 cells/well on 96 well Poly-D-Lysine coated plates to which irradiated target cells (K562-CD19) were added at an effector to target ratio of 2.5:1. […] Culture supernatants were harvested every 24 hrs at days 1, 2, 3 and 4, and IFNγ, IL-2, TNFα, IL-4 and IL-10 were measured from the culture supernatants using cytokine kits from Meso Scale Discovery (MSD).

[4] = test system: anti-CD19 CAR T cells; assay: Serial restimulation assay of anti-CD19 CAR+ T cells with K562-CD19 target cells; assay type: cell-based, human
Description: as §1, §2
(§3) The ability of cells to expand ex vivo following repeated stimulations in some aspects can indicates capacity of CAR-T cells to persist (e.g., following initial activation) and/or is indicative of function and/or fitness in vivo (Zhao et al. (2015) Cancer Cell, 28:415-28). Anti-CD19 CAR+ T cells generated as described above were plated in triplicate at 100,000 cells/well on 96 well Poly-D-Lysine coated plates, and irradiated target cells (K562-CD19) were added at an effector to target ratio of 2.5:1. […] A total of 7 rounds of stimulation during a 25 day culture period were carried out.

[5] = test system: anti-CD19 CAR T cells; assay: TH1 phenotype and marker flow cytometry of CAR T cells from serial restimulation; assay type: cell-based, human
Procedure: as §3
A serial restimulation assay was performed as described above and cells were harvested at various times and analyzed by flow cytometry to assess percentage of TH1-phenotype (assessed as CD4+CXCR3+CRTH2−) T cells or TH2-phenotype (assessed as CD4+CXCR3−CRTH2+).

[6] = test system: anti-CD19 CAR T cells; assay: Gene expression analysis (Nanostring Immune V2 panel) after 18 days serial stimulation; assay type: cell-based, human; conditions: 50 nM or 500 nM; day 18
Description: At day 18 after serial stimulation, RNA was isolated from anti-CD19 CAR T cells and Nanostring Immune V2 panel tests were run across 594 genes. The log 2 (fold change) of each gene was plotted against the −log 10(Raw p-value) derived from ANOVA tests of unscaled housekeeping gene normalized to count data for treatment versus control.

[7] = test system: CD19+Nalm-6 disseminated tumor line; assay: Nalm-6 disseminated tumor xenograft mouse model, ibrutinib by daily oral gavage; assay type: in vivo, NOD/Scid/gc−/− (NSG) mice
Description: On day zero (0), NSG mice were intravenously injected with 5×10^5 Nalm-6 cells expressing firefly luciferase. […] To permit assessment of the effect of a combination therapy with the inhibitor, a suboptimal dose of anti-CD19 CAR T cells from two different donors (generated by transducing cells derived from samples of human donor subjects essentially as described above) were i.v. injected into each mouse at a concentration of 5×10^5 CAR+ T cells per mouse at day 5. […] Eight (N=8) mice per group were monitored.
Following treatment as described above, tumor growth over time was measured by bioluminescence imaging and the average radiance (p/s/cm^2/sr) was measured. Survival of treated mice also was assessed over time.

[8] = test system: CD19+Nalm-6 disseminated tumor line; assay: Nalm-6 disseminated tumor xenograft mouse model, ibrutinib in drinking water; assay type: in vivo, NSG mice
Procedure: (§4) NSG mice described in Example 2 were intravenously injected on day 0 with 5×10^5 Nalm-6 cells expressing firefly luciferase. […] To permit assessment of the effect of a combination therapy with the inhibitor, a suboptimal dose of anti-CD19 CAR T cells was i.v. injected into the mice at 5×10^5/mouse at day 5. As a control, mice were administered the vehicle control without administration of the CAR-T cells or inhibitor.

[9] = test system: anti-CD19 CAR+ T cells; assay: Pharmacokinetic analysis of CAR+ T cells and tumor cells in blood, bone marrow and spleen; assay type: in vivo, NSG mice
Procedure: as §4
Samples were analyzed to assess presence and levels of CAR T cells (based on expression of the surrogate marker using an anti-EGFR antibody) and/or tumor cells at days 7, 12, 19 and 26 post CAR+ T cell transfer.

[10] = test system: anti-CD19 CAR+ T cells; assay: Ex vivo immunophenotyping (t-SNE) of CAR+ T cells from bone marrow at day 12; assay type: in vivo, NSG mice; conditions: day 12 post CAR T transfer
Procedure: as §4
Cells were assessed for surface markers CD44, CD45RA, CD62L, CD154, CXCR3, CXCR4, and PD-1 by flow cytometry and T-distributed stochastic neighbor embedding (t-SNE) high dimensional analysis was performed using FlowJo software. […] FACs histograms showing the individual expression profiles of CD4, CD8, CD62L, CD45RA, CD44 and CXCR3 from the 4 gated t-SNE in FIG. 8B overlaid on the expression of the total population (shaded) is shown in FIG. 8C.

[11] = test system: anti-CD19 CAR-T cells from DLBCL subjects; assay: Serial restimulation and cytolytic function of anti-CD19 CAR-T cells manufactured from DLBCL patients; assay type: cell-based, human
Description: Anti-CD19 CAR-T cells were generated substantially as described in Example 1, except that T cells were isolated from two different human subjects having diffuse large B-cell lymphoma (DLBCL). […] Cells were subjected to serial restimulation over a 21 day culture period and monitored for cell expansion and cytotoxic activity.

[12] = test system: CAR-expressing T cells; assay: RNA-Seq molecular signature of CAR-expressing T cells after 18 days serial stimulation; assay type: cell-based, human; conditions: day 18
Procedure: RNA isolation was performed using the RNEasy Micro Kit (Qiagen). Samples were sequenced and RNASeq reads were mapped to the human genome (GRCh38) and aligned to the GENCODE release 24 gene model. […] Differentially expressed genes were identified by imposing a log2 fold change cutoff of 0.5 and a Benjamini-Hochberg adjusted false discovery rate (FDR) cutoff of 0.05.

## C=CC(=O)N1CCC[C@@H](n2nc(-c3ccc(Oc4ccccc4)cc3)c3c(N)ncnc32)C1 [ibrutinib]
[1]; all concentrations tested (5000, 500, 50, 5, 0.5 nM) during co-culture
  cytolytic function of anti-CD19 CAR T cells: did not inhibit the cytolytic function
[1]; one donor, P<0.0001
  target cell killing: modestly increased target cell killing
[1]; two donors, up to supra-physiological 500 nM, E:T 2.5:1, 4 days
  cytolytic activity of anti-CD19 CAR-expressing T cells (target cell killing normalized to untreated control, AUC): did not significantly impact cytolytic activity
[2]; 5000, 500, 50, 5 and 0.5 nM, 3 donors, up to 4 days
  expression of truncated EGFR, CD25, CD38, CD39, CD95, CD62L, CCR7, CD45RO: no significant effect
[2]; over four days after stimulation
  phenotype as central (TCM) or effector (TEM) memory subsets (CCR7, CD45RA): did not affect the phenotype
[2]; seen at highest (supraphysiological) concentration
  expression levels of CD69, CD107a or PD-1 on CD4+ or CD8+ cells: subtle decrease
[3]; 50 nM ibrutinib
  IFN-γ and IL-2 production: some increase
[3]; 50 nM ibrutinib, some donors
  cytokine production: modestly increased cytokine production
[3]; physiological concentrations of ibrutinib
  cytokine concentrations: did not significantly decrease cytokine concentrations
[4]; after 18 days serial stimulation, donors 2 and 3
  CD62L expression by flow cytometry: significant increase in CD62L expression
[4]; day 18, 50 and 500 nM, two of three donors
  cell numbers and population doublings: enhanced cell numbers and population doublings
[4]; donor 3, day 18, highest concentration tested
  cell counts: Non-significant, increased cell counts
[5]; 500 nM, 18-day serial stimulation, P<0.01
  percentage of TH1 cells: further enhanced the percentage of TH1 cells
[5]; CAR T cells from serial stimulation assay
  additional CAR T activation or memory markers: No significant effects
[5]; after serial stimulation, greater with increasing concentrations
  percentage of CAR+ T cells with TH1 phenotype (CD4+CXCR3+CRTH2−): increase the percentage
[6]
  gene expression across 594 genes: did not significantly alter gene expression
[7]; ibrutinib 25 mg/kg qd P.O. plus suboptimal anti-CD19 CAR T cells, FIG. 6C
  median survival vs CAR T + vehicle: increased median survival
[7]; ibrutinib 25 mg/kg qd P.O. plus suboptimal dose anti-CD19 CAR T cells
  tumor growth vs CAR-T cells and vehicle: significantly decreased tumor growth
[7]; ibrutinib alone, 25 mg/kg qd P.O., no CAR-T cells
  tumor burden (average radiance) vs vehicle: no effect on tumor burden
[7]; ibrutinib plus CAR T, two donors, FIG. 6D, p<0.001
  survival at greater time points vs CAR T and vehicle: significantly increased survival
[8]; ibrutinib 25 mg/kg/day in drinking water plus CAR T
  tumor growth vs CAR T with vehicle: significantly (P<0.001) decreased tumor growth
[8]; ibrutinib 25 mg/kg/day in drinking water plus suboptimal anti-CD19 CAR-T cells, p<0.001
  median survival vs CAR T + vehicle: increased median survival
[9]; CAR+ cell treatment combined with ibrutinib
  tumor cells in blood, bone marrow or spleen vs vehicle: significantly fewer tumor cells
[9]; blood, days 7-26 post transfer, ibrutinib in drinking water
  circulating CAR+ T cells vs CAR+ T cells and vehicle: significant increase in circulating CAR+ T cells
[9]; day 19 post CAR-T cell transfer, p<0.05
  number of cells in the blood: significant increase in the number of cells in the blood
[10]; bone marrow, ibrutinib-treated animals
  population 4 (CD4+CD44hi CXCR3 CD45RAhi CD62Lhi) as share of CAR-T cells: 15.2%
[10]; CAR T plus ibrutinib
  populations 2 and 4 in bone marrow vs control mice: increase
[11]; 50 nM, after 16 days, one patient, P<0.01
  cytolytic activity: increase in cytolytic activity
[11]; 500 nM, after 16 days serial stimulation, each subject
  cytolytic function: increase in cytolytic function
[11]; 50 and 500 nM, 21 day culture, two DLBCL patients
  proliferation (cell doublings) of patient-derived CAR T cells: did not inhibit the proliferation
[12]; 50 nM
  gene expression changes: not significant, similar trends
[12]; 500 nM, FDR<0.05, absLog2FC>0.5
  number of protein-coding genes with significantly altered expression: 23
[12]; ibrutinib vs control
  expression of HES6, HIC1, LZTFL1, NRIP1, CD38 and RARRES3: downregulation
  expression of MSC: upregulation
  expression of SELL/CD62L: increases
  expression of granzyme A and CD38: decreases
